Laboratory results: PubChem BioAssay AID248 (DTP/NCI, 2004)
Values joined by “and” are separate entries in the source; they are usually repeats but may differ in a detail not shown here. Identical values can stand only once. Toxic doses and inconclusive results are not listed. No stated cut-off is given here; in the data, active means T/C of 150% or more; inactive means T/C below 125%.

Test system: L1210 leukemia ip in BDF1 mice, survival T/C
Assay: NCI In Vivo Anticancer Drug Screen. Data for tumor model L1210 Leukemia (intraperitoneal) in B6D2F1 (BDF1) mice
Settings: endpoint: mean survival time, higher = longer survival
How it was run: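 Read-out is survival time, reported as the treated-group measurement over the vehicle-control measurement.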

[1] = dose: 100.0 mg/kg/injection, schedule: Q01DX001 (ip), vehicle: carboxymethylcellulose (CMC)
[2] = dose: 200.0 mg/kg/injection, schedule: Q01DX001 (ip), vehicle: carboxymethylcellulose (CMC)
[3] = dose: 400.0 mg/kg/injection, schedule: Q01DX001 (ip), vehicle: carboxymethylcellulose (CMC)
[4] = dose: 100.0 mg/kg/injection, schedule: Q04DX003 (ip), vehicle: saline
[5] = dose: 200.0 mg/kg/injection, schedule: Q04DX003 (ip), vehicle: saline
[6] = dose: 400.0 mg/kg/injection, schedule: Q04DX003 (ip), vehicle: saline
[7] = dose: 75.0 mg/kg/injection, schedule: Q01DX001 (ip), vehicle: saline
[8] = dose: 100.0 mg/kg/injection, schedule: Q04DX003 (ip), vehicle: Klucel (hydroxypropylcellulose) (HPC)
[9] = dose: 200.0 mg/kg/injection, schedule: Q04DX003 (ip), vehicle: Klucel (hydroxypropylcellulose) (HPC)
[10] = dose: 400.0 mg/kg/injection, schedule: Q04DX003 (ip), vehicle: Klucel (hydroxypropylcellulose) (HPC)
[11] = dose: 75.0 mg/kg/injection, schedule: Q01DX001 (ip), vehicle: carboxymethylcellulose (CMC)
[12] = dose: 150.0 mg/kg/injection, schedule: Q01DX001 (ip), vehicle: carboxymethylcellulose (CMC)
[13] = dose: 100.0 mg/kg/injection, schedule: Q01DX001 (ip), vehicle: saline
[14] = dose: 100.0 mg/kg/injection, schedule: Q01DX009 (ip), vehicle: saline
[15] = dose: 200.0 mg/kg/injection, schedule: Q01DX009 (ip), vehicle: saline
[16] = dose: 400.0 mg/kg/injection, schedule: Q01DX009 (ip), vehicle: saline
[17] = dose: 100.0 mg/kg/injection, schedule: Q01DX001 (ip), vehicle: Klucel (hydroxypropylcellulose) (HPC)
[18] = dose: 200.0 mg/kg/injection, schedule: Q01DX001 (ip), vehicle: Klucel (hydroxypropylcellulose) (HPC)

Measured: T/C

COc1cc(C(C)S(=O)(=O)c2ccccc2)ccc1O (centres undefined)
inactive: [1] 97 % of control | [2] 97 % of control | [3] 103 % of control

CSCCNC(=O)NS(=O)(=O)c1ccc(Cl)cc1
inactive: [4] 96 % of control | [5] 97 % of control | [6] 92 % of control

CCCC(C(=O)OCCNC1CCCCC1)c1ccccc1 (centres undefined)
inactive: [7] 104 % of control

CCn1cnc2c(C(F)(F)F)nc(N)nc21
inactive: dose: 12.5 mg/kg/injection, schedule: Q01DX001 (ip), vehicle: acetone 94 % of control | dose: 12.5 mg/kg/injection, schedule: Q01DX009 (ip), vehicle: saline with Tween-80 96 % of control | dose: 12.5 mg/kg/injection, schedule: Q04DX003 (ip), vehicle: saline 103 % of control | dose: 25.0 mg/kg/injection, schedule: Q01DX001 (ip), vehicle: acetone 94 % of control | dose: 25.0 mg/kg/injection, schedule: Q01DX009 (ip), vehicle: saline with Tween-80 101 % of control | dose: 25.0 mg/kg/injection, schedule: Q04DX003 (ip), vehicle: saline 87 % of control | dose: 50.0 mg/kg/injection, schedule: Q01DX001 (ip), vehicle: acetone 101 % of control | dose: 50.0 mg/kg/injection, schedule: Q01DX009 (ip), vehicle: saline with Tween-80 95 % of control | dose: 50.0 mg/kg/injection, schedule: Q04DX003 (ip), vehicle: saline 97 % of control

Brc1cc(Br)cc(Br)c1
inactive: [8] 92 % of control and 98 % of control | [9] 101 % of control and 105 % of control | [10] 98 % of control and 103 % of control

CSc1nc(SCc2ccc(Cl)cc2)ncc1C
inactive: dose: 50.0 mg/kg/injection, schedule: Q01DX Z (ip), vehicle: methylcellulose (MC) 92 % of control | dose: 200.0 mg/kg/injection, schedule: Q01DX Z (ip), vehicle: methylcellulose (MC) 94 % of control

O=C1CN(C(=O)CN2C(=O)c3ccccc3C2=O)C2(CCCCC2)O1
inactive: dose: 66.0 mg/kg/injection, schedule: Q04DX003 (ip), vehicle: saline sonified 94 % of control | dose: 150.0 mg/kg/injection, schedule: Q04DX003 (ip), vehicle: saline sonified 101 % of control | dose: 200.0 mg/kg/injection, schedule: Q04DX003 (ip), vehicle: saline sonified 95 % of control | dose: 400.0 mg/kg/injection, schedule: Q04DX003 (ip), vehicle: saline sonified 97 % of control

O=c1c(Cl)c(C(Cl)(Cl)Cl)[nH]c2ccccc12
inactive: dose: 25.0 mg/kg/injection, schedule: Q01DX001 (ip), vehicle: saline with Tween-80 104 % of control | dose: 50.0 mg/kg/injection, schedule: Q01DX001 (ip), vehicle: saline with Tween-80 106 % of control

O=c1c(O)c(O)c1=O
inactive: [11] 89 % of control | [12] 98 % of control

C(=N\Nc1ccccc1)/c1cc2c3c(c1)CCCN3CCC2
inactive: dose: 100.0 mg/kg/injection, schedule: Q01DX009 (ip), vehicle: gum acacia 94 % of control | dose: 200.0 mg/kg/injection, schedule: Q01DX009 (ip), vehicle: gum acacia 91 % of control | dose: 400.0 mg/kg/injection, schedule: Q01DX009 (ip), vehicle: gum acacia 94 % of control

CC12CCC(C(Br)C1=O)C2(C)CS(=O)(=O)O (centres undefined)
inactive: [13] 104 % of control and 101 % of control | [14] 89 % of control | [4] 95 % of control | dose: 200.0 mg/kg/injection, schedule: Q01DX001 (ip), vehicle: saline 93 % of control and 104 % of control | [15] 97 % of control | [5] 97 % of control | dose: 400.0 mg/kg/injection, schedule: Q01DX001 (ip), vehicle: saline 104 % of control | [16] 92 % of control | [6] 95 % of control

CCSc1nc(C=O)c(Cc2ccccc2)c(=O)[nH]1
inactive: [8] 101 % of control | [9] 103 % of control | [10] 98 % of control

O=C(O)/C=C/C(=O)OCCO
inactive: [11] 91 % of control | [12] 86 % of control

Cc1cn(CCC(N)C(=O)O)c(=O)[nH]c1=O (centres undefined)
inactive: [14] 103 % of control | dose: 100.0 mg/kg/injection, schedule: Q04DX002 (ip), vehicle: saline 106 % of control | [15] 117 % of control | dose: 200.0 mg/kg/injection, schedule: Q04DX002 (ip), vehicle: saline 89 % of control | [16] 95 % of control | dose: 400.0 mg/kg/injection, schedule: Q04DX002 (ip), vehicle: saline 113 % of control

c1cc2ccc1CCc1ccc(cc1)CC2
inactive: dose: 100.0 mg/kg/injection, schedule: Q01DX001 (ip), vehicle: saline with Tween-80 100 % of control | dose: 100.0 mg/kg/injection, schedule: Q01DX009 (ip), vehicle: saline sonified 94 % of control | dose: 200.0 mg/kg/injection, schedule: Q01DX001 (ip), vehicle: saline with Tween-80 102 % of control | dose: 200.0 mg/kg/injection, schedule: Q01DX009 (ip), vehicle: saline sonified 99 % of control | dose: 400.0 mg/kg/injection, schedule: Q01DX001 (ip), vehicle: saline with Tween-80 98 % of control | dose: 400.0 mg/kg/injection, schedule: Q01DX009 (ip), vehicle: saline sonified 93 % of control

CC(=O)Nc1nc(-c2ccccc2)c(CCC=O)c(=O)[nH]1
inactive: dose: 50.0 mg/kg/injection, schedule: Q01DX001 (ip), vehicle: Klucel (hydroxypropylcellulose) (HPC) 93 % of control | [17] 96 % of control | [18] 104 % of control

O=C(Nc1ccc([N+](=O)[O-])cc1)Nc1ccc([N+](=O)[O-])c(C(F)(F)F)c1
inactive: dose: 12.5 mg/kg/injection, schedule: Q01DX009 (ip), vehicle: saline 87 % of control | dose: 15.0 mg/kg/injection, schedule: Q01DX015 (ip), vehicle: saline 97 % of control | dose: 25.0 mg/kg/injection, schedule: Q01DX009 (ip), vehicle: saline 90 % of control | dose: 25.0 mg/kg/injection, schedule: Q04DX003 (ip), vehicle: acetone 86 % of control | dose: 30.0 mg/kg/injection, schedule: Q01DX015 (ip), vehicle: saline 94 % of control | dose: 50.0 mg/kg/injection, schedule: Q01DX009 (ip), vehicle: saline 90 % of control | dose: 50.0 mg/kg/injection, schedule: Q04DX003 (ip), vehicle: acetone 88 % of control | dose: 60.0 mg/kg/injection, schedule: Q01DX015 (ip), vehicle: saline 92 % of control | dose: 75.0 mg/kg/injection, schedule: Q01DX009 (ip), vehicle: saline with Tween-80 102 % of control | [13] 94 % of control | dose: 115.0 mg/kg/injection, schedule: Q01DX009 (ip), vehicle: saline with Tween-80 100 % of control | dose: 120.0 mg/kg/injection, schedule: Q01DX015 (ip), vehicle: saline 90 % of control

NC(=O)c1cc([N+](=O)[O-])ccc1Cl
inactive: dose: 100.0 mg/kg/injection, schedule: Q04DX003 (ip), vehicle: saline with Tween-80 97 % of control | dose: 200.0 mg/kg/injection, schedule: Q04DX003 (ip), vehicle: saline with Tween-80 97 % of control | dose: 400.0 mg/kg/injection, schedule: Q04DX003 (ip), vehicle: saline with Tween-80 101 % of control

CCS(=O)(=O)C(CCC(C)C)CCC(C)C
inactive: [1] 102 % of control | [2] 109 % of control | [3] 104 % of control

O=C(O)CC(O)c1ccccc1 (centres undefined)
inactive: [7] 109 % of control | dose: 150.0 mg/kg/injection, schedule: Q01DX001 (ip), vehicle: saline 93 % of control | dose: 300.0 mg/kg/injection, schedule: Q01DX001 (ip), vehicle: saline 112 % of control

O=C(/C(=C/c1ccccc1)CN1CCOCC1)c1ccccc1
inactive: [8] 96 % of control

Cc1ccc(Cl)cc1NC(=S)Nc1ccccc1
inactive: dose: 100.0 mg/kg/injection, schedule: Q04DX002 (ip), vehicle: Klucel (hydroxypropylcellulose) (HPC) 100 % of control | dose: 200.0 mg/kg/injection, schedule: Q04DX002 (ip), vehicle: Klucel (hydroxypropylcellulose) (HPC) 103 % of control | dose: 400.0 mg/kg/injection, schedule: Q04DX002 (ip), vehicle: Klucel (hydroxypropylcellulose) (HPC) 106 % of control

COC(=O)c1cccc(Nc2ccccc2C(=O)O)c1
inactive: [17] 102 % of control | [18] 96 % of control | dose: 400.0 mg/kg/injection, schedule: Q01DX001 (ip), vehicle: Klucel (hydroxypropylcellulose) (HPC) 93 % of control
